Laboratory results reported in US5776859A, “Sodium channel active novel compounds and related processes and bioassay techniques” (priority 1995, dated 1998).
Read-outs that look alike come from different tables or passages of the source.

Assays:
B6C3FI mice = conditions: cited from earlier work
Fischer rats = conditions: cited from earlier work
[1] = test system: Salmonella strains TA98, TA100, TA1535 and TA97; conditions: cited from earlier work
animal = conditions: in vivo; cited from earlier work
[2] = cardiac patients, routine therapeutic administration of lidocaine; cited from earlier work
sodium channel = assay: Temperature-dependent circular dichroism at 222 nM (helix-coil transition); format: biochemical, beef (bovine brain); conditions: 222 nm wavelength; for % Loss of Helix (35° to 40° C.) / % Loss of Helix (30° to 35° C.): fresh AChE; for % Loss of Helix (35° to 40° C.): control 4.7 (pilocarpine), 4.6 (lidocaine); for % Loss of Helix (30° to 35° C.): control 21.8 (pilocarpine), 12.1 (lidocaine); for effect on alpha helix from 35° C. to 40° C. / effect on helical transition normally observed between 30°-35° C.: beef brain nerve cell protein preparation; for effect on helical transition normally observed between 30°-35° C.: 15° C. to 60° C.
Source text: As disclosed in PCT/US93/05792, published Jan. 6, 1994, one can identify compounds with potential analgesic effect by using circular dichroism to bioassay the interaction of molecules with ion channels, including sodium channels. Likewise, this bioassay technique is applicable to the thiophene compounds of the present invention.
To perform this method, solubilized nerve cell membrane proteins and acetylcholinesterase are purified using ion exchange and size exclusion chromatography. Then, one forms a mixture of a nerve cell protein and a compound capable of blocking or preventing the normal function of preferably the sodium channel in an excitable cell, and subjects that mixture to circular dichroism at a wave length of […] wave length. The transition of molar ellipticity is measured while varying the temperature of the mixture between 25°-50° C. The transition of molar ellipticity of the mixture is compared with the transition of molar ellipticity of a control nerve cell protein without the compound capable of blocking or preventing the normal function of the sodium channel in an excitable cell. The alpha helix content, as measured at […], is used to monitor the effect of temperature change on the ion channel's conformational change.
However, when a sodium channel active molecule is added to the membrane preparation, the temperature-dependent helix transition observed using circular dichroism is altered. […] These compounds, therefore, seem to stabilize the helix conformation of the sodium channel and to prevent the temperature-dependent uncoiling of alpha helix between 30° C.-35° C.

mice = conditions: cited from earlier work
rats = conditions: cited from earlier work
[3] = surviving female mice, relative to controls

c1ccsc1 [thiophene]
survival (B6C3FI mice; female mice, 1000 ppm and 500 ppm): survived the study | female mice died as a result of exposures (B6C3FI mice; female mice, 2000 ppm): 2/10 | mortality (B6C3FI mice; female mice, 8000 ppm and 4000 ppm): Total mortality | survival / mortality (B6C3FI mice; male mice, all exposure levels, single exposure): died or were terminated in moribund condition following a single exposure | microscopic pathology, hepatocytes (B6C3FI mice; mice that died early (within several hours after first exposure)): centrilobular degeneration of hepatocytes | microscopic pathology, cause of mortality (B6C3FI mice; mice): mortality was attributed to liver toxicity | other exposure-related microscopic lesions (B6C3FI mice; mice): No other exposure-related microscopic lesions were found | microscopic pathology, nose and nasal cavity (B6C3FI mice; mice, more severe in mice that survived the study): Necrotizing inflammation of the nose and nasal cavity | liver absolute and relative organ weights (liver-to-body and liver-to-brain weight ratios) (B6C3FI mice; [3]): increased relative to the controls | thymus organ weight parameters (B6C3FI mice; [3]): reduced | mean body weights or mean lung weights (B6C3FI mice; surviving female mice): did not affect mean body weights or mean lung weights | signs of toxicity (B6C3FI mice; surviving mice, 500 ppm and 1000 ppm): hypoactivity and abnormal posture | signs of toxicity (B6C3FI mice; surviving mice, 2000 ppm): dyspnea | microscopic pathology, hepatocytes (B6C3FI mice; surviving mice, all exposure levels): centrilobular necrosis of hepatocytes | absolute lung weight and lung to brain weight ratio (Fischer rats; all dose groups of both sexes surviving until study termination): decrease in the absolute lung weight and in the lung to brain weight ratio | mortality (Fischer rats; male rats, 2000 and 4000 ppm, first week): mortality also occurred in the 2000 and 4000 ppm male exposure groups | group mean body weight (Fischer rats; rats of both sexes, relative to control): dose-related depression in group mean body weight relative to control | clinical signs of toxicity (Fischer rats; rats, 4000 ppm): rough haircoat, ocular discharge, nasal discharge, dyspnea, and staggering gait | microscopic examination, lung (Fischer rats; rats, 4000 ppm): chronic active inflammation of the lung | mortality (Fischer rats; rats, 8000 ppm, one exposure): All rats exposed to 8000 ppm died following one exposure | microscopic examination, liver (Fischer rats; rats, all exposure groups, severity increasing with dose): necrotizing inflammation of the liver in all exposure groups with severity increasing with dose | toxicity to liver and lung (Fischer rats; summary of rat and mice studies, extremely high inhalation doses): shows toxicity to liver and lung | mutagenicity [1]: does not function as a mutagen in this assay

Cc1cccc(C)c1N [2,6-xylidine]
carcinogenicity (animal): established animal and probable human carcinogen

CCN(CC)CC(=O)Nc1c(C)cccc1C [Lidocaine]
2,6-xylidine in human serum hemoglobin adduct [2]: high levels of 2,6-xylidine | % Loss of Helix (35° to 40° C.) (sodium channel): 13.6% | % Loss of Helix (30° to 35° C.) (sodium channel): 1.8% | effect on alpha helix from 35° C. to 40° C. (sodium channel): the alpha helix uncoils to equal the helix in the control sample | effect on helical transition normally observed between 30°-35° C. (sodium channel): prevented the helical transition normally observed between 30°-35 °C

CC[C@@H]1C(=O)OC[C@@H]1Cc1cncn1C [Pilocarpine]
% Loss of Helix (35° to 40° C.) (sodium channel): 17.5% | % Loss of Helix (30° to 35° C.) (sodium channel): 7.1% | effect on alpha helix from 35° C. to 40° C. (sodium channel): the alpha helix uncoils to equal the helix in the control sample | effect on helical transition normally observed between 30°-35° C. (sodium channel): prevented the helical transition normally observed between 30°-35 °C

Cc1ccccc1N.Cl [ortho-toluidine hydrochloride]
carcinogenicity (mice): carcinogenic in rats and mice | carcinogenicity (rats): carcinogenic in rats and mice
